# According to ChEMBL document CHEMBL4130624, “Optimization of 1,4-Oxazine β-Secretase 1 (BACE1) Inhibitors Toward a Clinical Candidate” (J Med Chem, 2018):
# Key:
# [1] = tested on: Rattus norvegicus; experiment: Systemic clearance in Sprague-Dawley rat at 2.5 mg/kg, iv administered as bolus dose by LC-MS/MS analysis relative to liver blood flow; format: ADME, organism-based; conditions: in vivo
# [2] = tested on: Salmonella typhimurium; experiment: Mutagenicity in Salmonella typhimurium TAmix up to 500 ug/ml in presence of rat liver S9 fraction by Ames 2 assay; format: toxicity, organism-based; conditions: salmonella enterica subsp. enterica serovar typhimurium
# [3] = Cmax in female Sprague-Dawley rat at 75 mg/kg, po measured after 1 month repeated dosing by LC-MS/MS analysis; format: ADME, organism-based; design: dose 75 mg/kg, route oral; conditions: in vivo
# [4] = molecular target: Mu-type opioid receptor (Homo sapiens) (UniProt P35372); experiment: Inhibition of recombinant human mu-type opioid receptor at 10 uM after 5 mins
# Sequence of Mu-type opioid receptor (Homo sapiens) (P35372 whole entry): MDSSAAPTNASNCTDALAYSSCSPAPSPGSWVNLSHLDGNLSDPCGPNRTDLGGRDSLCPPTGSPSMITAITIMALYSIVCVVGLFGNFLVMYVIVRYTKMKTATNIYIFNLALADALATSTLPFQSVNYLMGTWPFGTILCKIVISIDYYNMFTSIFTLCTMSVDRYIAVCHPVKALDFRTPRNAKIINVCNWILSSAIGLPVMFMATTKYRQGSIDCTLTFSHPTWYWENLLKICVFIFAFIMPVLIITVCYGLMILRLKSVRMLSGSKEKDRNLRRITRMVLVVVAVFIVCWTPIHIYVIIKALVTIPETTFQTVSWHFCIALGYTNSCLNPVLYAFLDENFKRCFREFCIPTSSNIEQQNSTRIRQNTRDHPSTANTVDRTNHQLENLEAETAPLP
# [5] = AUC (0 to 24 hrs) in female Sprague-Dawley rat at 75 mg/kg, po measured after 1 month repeated dosing by LC-MS/MS analysis; format: ADME, organism-based; design: time < 24 hr, dose 75 mg/kg, route oral; conditions: in vivo
# [6] = tested on: Salmonella typhimurium; experiment: Mutagenicity in Salmonella typhimurium TAmix up to 500 ug/ml in absence of rat liver S9 fraction by Ames 2 assay; format: toxicity, organism-based; conditions: salmonella enterica subsp. enterica serovar typhimurium
# [7] = molecular target: Cytochrome P450 2C9 (Homo sapiens, UniProt P11712); experiment: Reversible inhibition of recombinant human CYP2C9 by fluorescence-based assay; format: ADME
# Sequence of Cytochrome P450 2C9 (P11712 whole entry): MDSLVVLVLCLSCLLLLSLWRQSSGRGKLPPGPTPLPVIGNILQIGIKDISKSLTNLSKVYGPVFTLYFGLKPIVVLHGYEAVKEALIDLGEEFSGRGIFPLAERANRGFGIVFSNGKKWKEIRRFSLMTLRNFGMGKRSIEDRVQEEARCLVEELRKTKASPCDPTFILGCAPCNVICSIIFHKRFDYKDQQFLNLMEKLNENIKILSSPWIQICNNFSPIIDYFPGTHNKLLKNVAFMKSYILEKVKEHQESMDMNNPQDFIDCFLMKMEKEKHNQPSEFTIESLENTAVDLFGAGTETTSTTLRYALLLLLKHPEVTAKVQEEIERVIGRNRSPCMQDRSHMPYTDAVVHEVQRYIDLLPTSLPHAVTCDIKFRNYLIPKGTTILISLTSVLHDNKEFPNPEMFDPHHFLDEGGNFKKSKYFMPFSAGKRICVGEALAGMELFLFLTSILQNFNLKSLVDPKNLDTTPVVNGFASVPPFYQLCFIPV
compound,measurement,setting,value
C[C@]1(c2cc(NC(=O)c3ccc(C#N)cn3)ccc2F)N=C(N)CO[C@H]1C(F)(F)F,CL,[1],67%
same,Activity,[2],Non-Toxic
same,Cmax at 1 month,[3],2720 ng/mL
same,inhibition,[4],91%
same,AUC at 24 h,[5],38800 ng·h/mL
same,Activity,[6],Non-Toxic
same,IC50,[7],> 30 µM
